The values below come from patent US12613239B2, “Live imaging system to visualize the retro-transcribed viral DNA genome” (priority 2019, dated 2026).

For test [1], the system named is HIV-1 ANCH3 (HIV-1ΔEnvINHAΔNef ANCH3/VSV-G). Format: cell-based.
The subject of test [2] is HIV-1 CA and IN association. It is filed as cell-based. Conditions: 24 h.
In another test the target is viral CA (Human immunodeficiency virus type 1 group M subtype B, UniProt P04591). The following applies: cited from earlier work.
For a further test, the system named is HIV-1 viral RNA. Format: cell-based. The following applies: 24 h.
Test [3] concerns lentiviral particles pseudotyped with Spike from SARS-CoV2 (S-LV-ANCH3). It is filed as cell-based.

Like-named read-outs stand apart in the source and are kept apart here.

Regarding `Cc1ccnc2c1NC(=O)c1cccnc1N2C1CC1` [NEV, nevirapine], the “Intranuclear spots counted in 20 cells” value in test [1] amounted to 0 detections.

For the molecule `Cc1[nH]c2ccccc2c1CC(=O)N[C@@H](Cc1ccccc1)C(=O)N(C)c1ccccc1` [PF74], the figures for the “Association between CA and IN” value in test [2] (high dose of PF74 (10 μM)) and in test [2] (low dose of PF74 (1.25 μM)) were “lost” and “preserved to levels comparable to samples without drug at 6 h post infection”, respectively. In test [1], the “Detection of viral DNA inside the nucleus” value is “detect the viral DNA inside the nucleus only in the absence of PF74”. Moreover, the Viral nuclear entry entry in test [1] is “blocked viral nuclear entry”. For the same molecule, the “Mechanism at high concentration” value on viral CA is “accelerates uncoating and blocks reverse transcription”. The “Mechanism at low concentration” value at viral CA is “directly competes with the binding of host viral partners”. Further, the results for the “Viral RNA of the incoming cores” value with HIV-1 viral RNA (high dose of PF74 (10 μM)) and with HIV-1 viral RNA (low dose of PF74 (1.25 μM)) were “completely degraded” and “not completely degraded”, respectively.

Consider `CCN(CCO)CCCC(C)Nc1ccnc2cc(Cl)ccc12` (stereo not shown) [hydroxychloroquine], for which the “Viral entry of S-LV-ANCH3” value in test [3] is “inhibit viral entry”.
